One assay addresses human BACE-1 (Homo sapiens (Human), UniProt P56817). The experiment in a line: Test 1: Inhibition of Human BACE-1. Format: biochemical. The note with it: recombinant BACE-1, pH 4.5, fluorescence-quenched substrate. As for the experimental part: Test 1: Inhibition of Human BACE-1
(§1) Recombinant BACE-1 (extracellular domain, expressed in baculovirus and purified using standard methods) at 0.1 to 1 nM concentrations is incubated with the test compound at various concentrations for 1 hour at room temperature in 100 mM acetate buffer, pH 4.5, containing 0.1% CHAPS. Activity was measured using a final concentration of 3 μM of the fluorescence-quenched substrate Q-C(HSO3)-Ile-Asp-Leu-Ala-Val-Leu-Asp-HN—CH2—CH2-Mca, where Q=2-nitro-5-amino benzoic acid and Mca=7-methoxy-4-coumarinyl acetic acid. […] Fluorescence increase was followed for 15 min, in 1 minute's intervals. The fluorescence/time slopes were calculated from duplicate wells and from wells without inhibitor and the IC50 values were calculated using a logistic 4-parameter model.

In assay [1] the test system is amyloid peptide 1-40 release. Nature of the assay: Test 4: Inhibition of Cellular Release of Amyloid Peptide 1-40. Type of assay: cell-based. The settings on record: Chinese hamster ovary cells transfected with the human gene for amyloid precursor protein, 24 hours, read-out: Amyloid-β1-40 release IC50. Here is the method:
Chinese hamster ovary cells are transfected with the human gene for amyloid precursor protein. The cells are plated at a density of 8000 cells/well into 96-well microtiter plates and cultivated for 24 hours in DMEM cell culture medium containing 10% FCS. The test compound is added to the cells at various concentrations, and the cells are cultivated for 24 hours in the presence of the test compound. […] The potency of the compound is calculated from the percentage of inhibition of amyloid peptide release as a function of the test compound concentration.

In the next assay the target is human BACE-2 (Homo sapiens (Human), UniProt Q9Y5Z0). Nature of the assay: Test 2: Inhibition of Human BACE-2. The settings on record: recombinant BACE-2, pH 4.5, fluorescence-quenched substrate. Type of assay: biochemical. As for the experimental part:
Test 2: Inhibition of Human BACE-2
as §1, with “BACE-2” for “BACE-1”

Read-outs that look alike come from different tables or passages of the source.

In general, IC50 refers to the concentration at which inhibition is half-maximal.

Sequence of human BACE-2 (Q9Y5Z0 63-473): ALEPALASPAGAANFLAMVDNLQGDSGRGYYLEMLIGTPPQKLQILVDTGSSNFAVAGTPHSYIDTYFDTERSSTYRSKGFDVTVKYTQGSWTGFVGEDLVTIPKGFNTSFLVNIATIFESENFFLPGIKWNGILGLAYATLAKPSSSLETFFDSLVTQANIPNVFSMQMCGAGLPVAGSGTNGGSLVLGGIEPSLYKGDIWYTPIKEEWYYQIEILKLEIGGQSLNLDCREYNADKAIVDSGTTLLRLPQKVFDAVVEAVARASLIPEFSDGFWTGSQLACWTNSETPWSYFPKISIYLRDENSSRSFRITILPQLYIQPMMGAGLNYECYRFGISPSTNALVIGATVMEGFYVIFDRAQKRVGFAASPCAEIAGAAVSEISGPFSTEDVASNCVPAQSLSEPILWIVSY
Sequence of human BACE-1 (P56817 46-457): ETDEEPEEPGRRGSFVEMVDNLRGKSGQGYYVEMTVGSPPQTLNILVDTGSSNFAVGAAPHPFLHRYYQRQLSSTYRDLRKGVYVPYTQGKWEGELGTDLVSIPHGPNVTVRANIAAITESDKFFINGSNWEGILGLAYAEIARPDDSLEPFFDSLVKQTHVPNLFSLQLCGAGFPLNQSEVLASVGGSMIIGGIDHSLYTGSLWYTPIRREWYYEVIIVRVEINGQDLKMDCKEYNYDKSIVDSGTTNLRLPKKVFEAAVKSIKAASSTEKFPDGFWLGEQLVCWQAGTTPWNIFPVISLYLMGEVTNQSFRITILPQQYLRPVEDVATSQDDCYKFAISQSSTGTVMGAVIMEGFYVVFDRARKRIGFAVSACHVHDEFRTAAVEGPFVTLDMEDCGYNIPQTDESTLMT

`CC1(c2cccc(Nc3nsc4cc(Br)ccc34)c2)COCC(N)=N1` (centres unmarked) [Example 1, [3-(5-Amino-3-methyl-3,6-dihydro-2H-[1,4]oxazin-3-yl)-phenyl]-(6-bromo-benzo[d]isothiazol-3-yl)-amine]: the IC50 at human BACE-1 came out at 1500 nM; in assay [1] (Cricetulus griseus), 2900 nM; at human BACE-2, 1900 nM.
Take `Cn1nc(Nc2cccc(C3(C)COCC(N)=N3)c2)c2ccc(Br)cc21` (centres unmarked) [Example 2, [3-(5-Amino-3-methyl-3,6-dihydro-2H-[1,4]oxazin-3-yl)-phenyl]-(6-bromo-1-methyl-1H-indazol-3-yl)-amine]: the results for the IC50 (at human BACE-1; in assay [1] (Cricetulus griseus); on human BACE-2) were 5200 nM, 3500 nM and over 10000 nM, respectively.
As to `CC1(c2cccc(Nc3noc4ccccc34)c2)COCC(N)=N1` (centres unmarked) [Example 3, [3-(5-Amino-3-methyl-3,6-dihydro-2H-[1,4]oxazin-3-yl)-phenyl]-benzo[d]isoxazol-3-yl-amine], the IC50 at human BACE-1 was determined as 8900 nM; in assay [1] (Cricetulus griseus) it was 7100 nM; on human BACE-2 it was 3200 nM.
The corresponding values for `CC1(c2cc(NCc3ccco3)ccc2F)COCC(N)=N1` (centres unmarked) [Example 4, 5-{2-Fluoro-5-[(furan-2-ylmethyl)-amino]-phenyl}-5-methyl-5,6-dihydro-2H-[1,4]oxazin-3-ylamine] are 1900 nM, 380 nM and 2400 nM.
For the compound `NC1=NC(CF)(c2cc(NCc3ccc(Br)cc3Cl)ccc2F)COC1` (centres unmarked) [Example 5, 5-[5-(4-Bromo-2-chloro-benzylamino)-2-fluoro-phenyl]-5-fluoromethyl-5,6-dihydro-2H-[1,4]oxazin-3-ylamine], the half-inhibitory concentration (IC50) on human BACE-1 was 3600 nM; in assay [1] (Cricetulus griseus), 1400 nM; on human BACE-2 it was 5300 nM.
`NC1=NC(c2cc(NCc3cc(Br)co3)ccc2F)(C(F)F)COC1` (centres unmarked) [Example 6, 5-{5-[(4-Bromo-furan-2-ylmethyl)-amino]-2-fluoro-phenyl}-5-difluoromethyl-5,6-dihydro-2H-[1,4]oxazin-3-ylamine]: the figures for the IC50 (at human BACE-1; in assay [1] (Cricetulus griseus); at human BACE-2) were 6200 nM, 740 nM and 8300 nM, respectively.
Take `NC1=N[C@@](c2cc(Nc3ncnc4cc(Cl)cnc34)ccc2F)(C(F)F)COC1` [Example 7]: the IC50 at human BACE-1 was 36 nM; in assay [1] (Cricetulus griseus), 22 nM; on human BACE-2 it was 32 nM.
The corresponding values for `NC1=N[C@@](c2cc(Nc3nccc4cc(Br)cnc34)ccc2F)(C(F)F)COC1` [Example 8, [3-((R)-5-Amino-3-difluoromethyl-3,6-dihydro-2H-[1,4]oxazin-3-yl)-4-fluoro-phenyl]-(3-bromo-[1,7]naphthyridin-8-yl)-amine] are 21 nM, 33 nM and 11 nM.
`N#Cc1cnc2c(Nc3ccc(F)c([C@]4(C(F)F)COCC(N)=N4)c3)nccc2c1` [Example 9, 8-[3-((R)-5-Amino-3-difluoromethyl-3,6-dihydro-2H-[1,4]oxazin-3-yl)-4-fluoro-phenylamino]-[1,7]naphthyridine-3-carbonitrile]: the IC50 came to 18 nM at human BACE-1, 5 nM in assay [1] (Cricetulus griseus) and 30 nM on human BACE-2.
As for `COCCOc1cnc2c(Nc3ccc(F)c([C@]4(C(F)F)COCC(N)=N4)c3)nccc2c1` [Example 10, [3-((R)-5-Amino-3-difluoromethyl-3,6-dihydro-2H-[1,4]oxazin-3-yl)-4-fluoro-phenyl]-[3-(2-methoxy-ethoxy)-[1,7]naphthyridin-8-yl]-amine], the figures for the IC50 (on human BACE-1; in assay [1] (Cricetulus griseus); at human BACE-2) were 600 nM, 24 nM and 8200 nM, respectively.
For `NC1=N[C@@](c2cc(Nc3nccc4cc(OCCCl)cnc34)ccc2F)(C(F)F)COC1` [Example 11], in that order: 1900 nM, 250 nM and 5600 nM.
Take `Cc1cn2ccnc(Nc3ccc(F)c([C@]4(C(F)F)COCC(N)=N4)c3)c2n1` [Example 12, [3-((R)-5-Amino-3-difluoromethyl-3,6-dihydro-2H-[1,4]oxazin-3-yl)-4-fluoro-phenyl]-(2-methyl-imidazo[1,2-a]pyrazin-8-yl)-amine]: the results for the IC50 (on human BACE-1; in assay [1] (Cricetulus griseus); at human BACE-2) were 350 nM, 86 nM and 72 nM, respectively.
For `NC1=N[C@@](c2cc(Nc3nccn4ccnc34)ccc2F)(C(F)F)COC1` [Example 13, [3-((R)—S-Amino-3-difluoromethyl-3,6-dihydro-2H-[1,4]oxazin-3-yl)-4-fluoro-phenyl]-imidazo[1,2-a]pyrazin-8-yl-amine], the IC50 turned out to be 1400 nM at human BACE-1, 260 nM in assay [1] and 410 nM at human BACE-2.
Take `NC1=N[C@@](c2cc(Nc3nccn4c(Br)cnc34)ccc2F)(C(F)F)COC1` [Example 14, [3-((R)-5-Amino-3-difluoromethyl-3,6-dihydro-2H-[1,4]oxazin-3-yl)-4-fluoro-phenyl]-(3-bromo-imidazo[1,2-a]pyrazin-8-yl)-amine]: the IC50 is 570 nM at human BACE-1, 220 nM in assay [1] (Cricetulus griseus) and 1400 nM at human BACE-2.
Take `COc1cccnc1Nc1ccc(F)c([C@]2(C(F)F)COCC(N)=N2)c1` [Example 15, (R)-5-Difluoromethyl-5-[2-fluoro-5-(3-methoxy-pyridin-2-ylamino)-phenyl]-5,6-dihydro-2H-[1,4]oxazin-3-ylamine]: the IC50 amounted to 300 nM at human BACE-1, 56 nM in assay [1] (Cricetulus griseus) and 89 nM at human BACE-2.
The corresponding values for `NC1=N[C@@](c2cc(Nc3ncccn3)ccc2F)(C(F)F)COC1` [Example 16, (R)-5-Difluoromethyl-5-[2-fluoro-5-(pyrimidin-2-ylamino)-phenyl]-5,6-dihydro-2H-[1,4]oxazin-3-ylamine] are 8600 nM, 2300 nM and over 10000 nM.
Turning to `COc1ccnc(Nc2ccc(F)c([C@]3(C(F)F)COCC(N)=N3)c2)n1` [Example 17, (R)-5-Difluoromethyl-5-[2-fluoro-5-(4-methoxy-pyrimidin-2-ylamino)-phenyl]-5,6-dihydro-2H-[1,4]oxazin-3-ylamine], the IC50 came out at 1800 nM at human BACE-1, 400 nM in assay [1] (Cricetulus griseus) and 670 nM on human BACE-2.
In the case of `COc1nccnc1Nc1ccc(F)c([C@]2(C(F)F)COCC(N)=N2)c1` [Example 18, (R)-5-Difluoromethyl-5-[2-fluoro-5-(3-methoxy-pyrazin-2-ylamino)-phenyl]-5,6-dihydro-2H-[1,4]oxazin-3-ylamine], the IC50 on human BACE-1 is 2400 nM; in assay [1] (Cricetulus griseus), 670 nM; at human BACE-2, 1300 nM.
`CCOc1cccnc1Nc1ccc(F)c([C@]2(C(F)F)COCC(N)=N2)c1` [Example 19, (R)-5-Difluoromethyl-5-[5-(3-ethoxy-pyridin-2-ylamino)-2-fluoro-phenyl]-5,6-dihydro-2H-[1,4]oxazin-3-ylamine]: the IC50 on human BACE-1 came to 1300 nM; in assay [1] (Cricetulus griseus), 310 nM; at human BACE-2, 160 nM.
As for `NC1=N[C@@](c2cc(Nc3ncccc3OCC(F)F)ccc2F)(C(F)F)COC1` [Example 20, (R)-5-{5-[3-(2,2-Difluoro-ethoxy)-pyridin-2-ylamino]-2-fluoro-phenyl}-5-difluoromethyl-5,6-dihydro-2H-[1,4]oxazin-3-ylamine], the half-maximal inhibitory concentration (IC50) worked out at 1300 nM on human BACE-1, 530 nM in assay [1] (Cricetulus griseus) and 220 nM on human BACE-2.
Turning to `COc1cncnc1Nc1ccc(F)c([C@]2(C(F)F)COCC(N)=N2)c1` [Example 21, (R)-5-Difluoromethyl-5-[2-fluoro-5-(5-methoxy-pyrimidin-4-ylamino)-phenyl]-5,6-dihydro-2H-[1,4]oxazin-3-ylamine], the IC50 on human BACE-1 was determined as 1500 nM; in assay [1] (Cricetulus griseus), 430 nM; on human BACE-2 it was 560 nM.
As for `NC1=N[C@@](c2cc(Nc3ncccc3OC(F)F)ccc2F)(C(F)F)COC1` [Example 22, (R)-5-[5-(3-Difluoromethoxy-pyridin-2-ylamino)-2-fluoro-phenyl]-5-difluoromethyl-5,6-dihydro-2H-[1,4]oxazin-3-ylamine], the IC50 worked out at 970 nM at human BACE-1, 240 nM in assay [1] (Cricetulus griseus) and 340 nM on human BACE-2.
As to `COc1c(N)ncnc1Nc1ccc(F)c([C@]2(C(F)F)COCC(N)=N2)c1` [N-[3-((R)-5-amino-3-difluoromethyl-3,6-dihydro-2H-[1,4]oxazin-3-yl)-4-fluoro-phenyl]-5-methoxy-pyrimidine-4,6-diamine], the IC50 at human BACE-1 and at human BACE-2 was over 10000 nM throughout.

The values above are taken from patent US9284284B2, “Oxazine derivatives and their use in the treatment of disease” (NOVARTIS AG, priority 2011, dated 2016).
